According to patent publication US12479821B2 (MBD CO., LTD., priority 2019, dated 2025):

target: T1, CYP4A (Homo sapiens, UniProt Q02928); assay: CYP4A enzyme assay (Luciferin-ME luminescence, CYP4A bactosome); assay type: biochemical; details: compound concentration 5 μM; 25%-50%; read-out: % Inhibition 25%-50%
T1 construct: host or cells: bactosome, i.e. bacterial membrane preparation (own knowledge of the term)
T1 sequence (Q02928 5-519): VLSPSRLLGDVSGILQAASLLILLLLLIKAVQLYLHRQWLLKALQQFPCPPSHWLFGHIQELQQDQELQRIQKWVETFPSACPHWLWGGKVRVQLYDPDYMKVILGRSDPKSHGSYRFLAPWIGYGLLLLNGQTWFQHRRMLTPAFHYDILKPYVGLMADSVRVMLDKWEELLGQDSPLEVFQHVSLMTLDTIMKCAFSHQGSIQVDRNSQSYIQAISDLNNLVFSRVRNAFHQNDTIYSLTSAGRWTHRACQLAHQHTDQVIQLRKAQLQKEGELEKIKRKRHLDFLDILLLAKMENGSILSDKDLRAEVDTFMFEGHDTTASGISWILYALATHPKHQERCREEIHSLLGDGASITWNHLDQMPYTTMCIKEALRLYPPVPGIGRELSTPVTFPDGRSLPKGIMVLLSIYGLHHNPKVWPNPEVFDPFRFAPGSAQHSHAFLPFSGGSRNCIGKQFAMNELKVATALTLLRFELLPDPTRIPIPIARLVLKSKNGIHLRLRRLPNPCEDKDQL
Procedure, shortened: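 CYP4A bactosome preincubated 15 min at room temperature with compound (5 μM) in 100 mM KPO4, 0.1% BSA, 1 mM DTT. Luciferin-ME (5 mM) plus NADPH regeneration system added, 30 min at room temperature, then detection reagent for 15 min. Inhibition derived from luminescence versus controls.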

Row | Compound | inhibition at 5 µM [%]
1 | O=C([C@H]1CCCN(S(=O)(=O)c2ccc(O)cc2)C1)N1CCN(c2cc(C(F)(F)F)nc3ccccc23)CC1 [Formula 70, (S)-(1-(4-hydroxyphenylsulfonyl)piperidin-3-yl) (4-(2-(trifluoromethyl)quinolin-4-yl)piperazin-1-yl) methanone] | 25 to 50
2 | O=C(C1CCCN(S(=O)(=O)c2ccc(F)cc2)C1)N1CCN(c2cc(C(F)(F)F)nc3ccccc23)CC1 (stereo not shown) [Formula 66, (1-(4-fluorophenylsulfonyl)piperidin-3-yl) (4-(2-(trifluoromethyl)quinolin-4-yl)piperazin-1-yl) methanone] | 25 to 50
3 | O=C(C1CCCN(S(=O)(=O)c2c(F)c(F)c(F)c(F)c2F)C1)N1CCN(c2cc(C(F)(F)F)nc3ccccc23)CC1 (stereo not shown) [Formula 73, (1-(perfluorophenylsulfonyl)piperidin-3-yl) (4-(2-(trifluoromethyl)quinolin-4-yl)piperazin-1-yl) methanon] | 25 to 50
4 | COC(=O)c1ccc(S(=O)(=O)N2CCCC(C(=O)N3CCN(c4cc(C)nc5ccccc45)CC3)C2)cc1 (stereo not shown) [Formula 37, methyl 4-(3-(1-(2-methylquinolin-4-yl)piperazine-4-carbonyl)piperidin-1-ylsulfonyl)benzoate] | 25 to 50
5 | Cc1cc(N2CCN(C(=O)C3CCCN(S(=O)(=O)c4ccc(C(=O)N(C)C)cc4)C3)CC2)c2ccccc2n1 (stereo not shown) [Formula 101, N,N-dimethyl-4-(3-(1-(2-methylquinolin-4-yl)piperazine-4-carbonyl)piperidin-1-ylsulfonyl)benzamide] | 25 to 50
6 | Cc1cc(N2CCN(C(=O)C3CCCN(S(=O)(=O)c4ccc(N)cc4)C3)CC2)c2ccccc2n1 (stereo not shown) [Formula 96, (1-(4-aminophenylsulfonyl)piperidin-3-yl) (4-(2-methylquinolin-4-yl)piperazin-1-yl) methanone] | 25 to 50

same assay, conditions: compound concentration 5 μM; 75% or more; read-out: % Inhibition 75% or more

Row | Compound | inhibition at 5 µM [%]
7 | CN(C)c1ccc(S(=O)(=O)N2CCCC(C(=O)N3CCN(c4ccnc5ccccc45)CC3)C2)cc1 (stereo not shown) [Formula 77, (1-(4-(dimethylamino)phenylsulfonyl)piperidin-3-yl) (4-(quinolin-4-yl)piperazin-1-yl) methanone] | ≥ 75
8 | Cc1cc(N2CCN(C(=O)C3CCCN(S(=O)(=O)c4ccc(-c5cccnc5)cc4)C3)CC2)c2ccccc2n1 (stereo not shown) [Formula 105, (4-(2-methylquinolin-4-yl)piperazin-1-yl) (1-((4-(pyridin-3-yl)phenyl)sulfonyl)piperidin-3-yl) methanone] | 0
9 | O=C(C1CCCN(S(=O)(=O)c2ccc(-c3ccccc3)cc2)C1)N1CCN(c2ccnc3cc(F)ccc23)CC1 (stereo not shown) [Formula 55, (4-(7-fluoroquinolin-4-yl)piperazin-1-yl) (1-(4-phenylbenzenesulfonyl)piperidin-3-yl) methanone] | ≥ 75
10 | CN(C)c1ccc(S(=O)(=O)N2CCCC(C(=O)N3CCN(c4ccnc5cc(F)ccc45)CC3)C2)cc1 (stereo not shown) | ≥ 75
11 | O=C([C@@H]1CCCN(S(=O)(=O)c2cccc([N+](=O)[O-])c2)C1)N1CCN(c2ccnc3cc(F)ccc23)CC1 [Formula 60, (R)-(4-(7-fluoroquinolin-4-yl)piperazin-1-yl) (1-(3-nitrophenylsulfonyl)piperidin-3-yl) methanone] | ≥ 75
12 | O=C(C1CCCN(S(=O)(=O)c2ccc(O)cc2)C1)N1CCN(c2ccnc3ccccc23)CC1 (stereo not shown) [Formula 76, (1-((4-hydroxyphenyl)sulfonyl)piperidin-3-yl) (4-(quinolin-4-yl)piperazin-1-yl) methanone] | ≥ 75
13 | Cc1ncc(-c2ccc(S(=O)(=O)N3CCCC(C(=O)N4CCN(c5ccnc6ccccc56)CC4)C3)cc2)cn1 (stereo not shown) [Formula 115, (1-(4-(2-methylpyrimidin-5-yl)phenylsulfonyl)piperidin-3-yl) (4-(quinolin-4-yl)piperazin-1-yl) methanone] | ≥ 75
14 | CCCCc1ccc(N=CNO)c(C)c1 [HET-0016, N-hydroxy-N′-(4-butyl-2-methylphenyl)-formamidine, reference compound] | ≥ 75
15 | CC(=O)Nc1ccc(S(=O)(=O)N2CCC[C@H](C(=O)N3CCN(c4ccnc5cc(F)ccc45)CC3)C2)cc1 [Formula 47, (S)—N-(4-(3-(1-(7-fluoroquinolin-4-yl)piperazine-4-carbonyl)piperidin-1-ylsulfonyl)phenyl) acetamide] | ≥ 75
16 | CC(=O)Nc1cccc(S(=O)(=O)N2CCC[C@@H](C(=O)N3CCN(c4ccnc5cc(F)ccc45)CC3)C2)c1 [Formula 59, (R)—N-(3-(3-(1-(7-fluoroquinolin-4-yl)piperazine-4-carbonyl)piperidin-1-ylsulfonyl)phenyl) acetamide] | ≥ 75

same assay, conditions: compound concentration 5 μM; '50%-75%'; read-out: % Inhibition 50%-75%

Row | Compound | inhibition at 5 µM [%]
17 | COc1ccc(S(=O)(=O)N2CCCC(C(=O)N3CCN(c4cc(C)nc5ccccc45)CC3)C2)cc1 (stereo not shown) [Formula 29, (1-(4-methoxyphenylsulfonyl)piperidin-3-yl) (4-(2-methylquinolin-4-yl)piperazin-1-yl)methanone] | 50 to 75
18 | O=C(C1CCCN(S(=O)(=O)c2ccc(Br)cc2)C1)N1CCN(c2ccnc3ccccc23)CC1 (stereo not shown) [Formula 85, (1-(4-bromophenylsulfonyl)piperidin-3-yl) (4-(quinolin-4-yl)piperazin-1-yl) methanone] | 50 to 75
19 | O=C(C1CCCN(S(=O)(=O)c2cccc(O)c2)C1)N1CCN(c2ccnc3cc(Cl)ccc23)CC1 (stereo not shown) [Formula 92, (4-(7-chloroquinolin-4-yl)piperazin-1-yl) (1-(3-hydroxyphenylsulfonyl)piperidin-3-yl) methanone] | 50 to 75
20 | CC(=O)Nc1ccc(S(=O)(=O)N2CCC[C@H](C(=O)N3CCN(c4cc(C)nc5ccccc45)CC3)C2)cc1 [Formula 17, (S)—N-(4-((3-(4-(2-methylquinolin-4-yl)piperazine-1-carbonyl)piperidin-1-yl)sulfonyl)phenyl) acetamide] | 50 to 75
21 | Cc1cc(N2CCN(C(=O)C3CCCN(S(=O)(=O)c4ccc(Cl)cc4)C3)CC2)c2ccccc2n1 (stereo not shown) [Formula 25, (1-(4-chlorophenylsulfonyl)piperidin-3-yl) (4-(2-methylquinolin-4-yl)piperazin-1-yl) methanone] | 50 to 75
22 | CC(=O)Nc1ccc(S(=O)(=O)N2CCCC(C(=O)N3CCN(c4cc(C(F)(F)F)nc5ccccc45)CC3)C2)cc1 (stereo not shown) [Formula 63, N-(4-(3-(1-(2-(trifluoromethyl)quinolin-4-yl)piperazine-4-carbonyl)piperidin-1-ylsulfonyl)phenyl) acetamide] | 50 to 75
23 | O=C(C1CCCN(S(=O)(=O)c2ccc(Oc3ccccc3)cc2)C1)N1CCN(c2ccnc3cc(Cl)ccc23)CC1 (stereo not shown) [Formula 9, (4-(7-chloroquinolin-4-yl)piperazin-1-yl) (1-((4-phenoxyphenyl)sulfonyl)piperidin-3-yl) methanone] | 50 to 75
24 | O=C(C1CCCN(S(=O)(=O)c2ccc(F)cc2)C1)N1CCN(c2ccnc3cc(Cl)ccc23)CC1 (stereo not shown) [Formula 3, (4-(7-chloroquinolin-4-yl)piperazin-1-yl) (1-((4-fluorophenyl)sulfonyl)piperidin-3-yl) methanone] | 50 to 75
25 | O=C(C1CCCN(S(=O)(=O)c2ccc(-c3ccccc3)cc2)C1)N1CCN(c2ccnc3cc(Cl)ccc23)CC1 (stereo not shown) [Formula 13, (4-(7-chloroquinolin-4-yl)piperazin-1-yl) (1-(4-phenylbenzenesulfonyl)piperidin-3-yl) methanone] | 50 to 75
